The results in this text go back to ChEMBL document CHEMBL5620394, “Synthesis of new antiproliferative 1,3,4-substituted-pyrrolo[3,2-c]quinoline derivatives, biological and in silico insights” (Eur J Med Chem, 2023).

Each structure is given as a SMILES string. Activity calls are given as the source filed them. The calls are words filed in the database; no cut-off is given here.

In data set [1] the test system is MCF7. The experiment in a line: Antiproliferative activity against human MCF7 cells assessed as cell growth at 10 uM incubated for 48 hrs by sulforhodamine B assay relative to control. The settings on record: read-out: Activity. The format is functional. For orientation: The SRB assay estimates cell density from bound dye.
For another data set, the system named is SR. The experiment in a line: Antiproliferative activity against human SR cells assessed as cell growth at 10 uM incubated for 48 hrs by sulforhodamine B assay relative to control. The format is functional. To be noted: read-out: Activity.
A further data set concerns K562. The experiment in a line: Antiproliferative activity against human K562 cells assessed as cell growth at 10 uM incubated for 48 hrs by sulforhodamine B assay relative to control. In kind it is functional. The settings on record: read-out: Activity.
Another data set has as its system PC-3. The experiment in a line: Antiproliferative activity against human PC-3 cells assessed as cell growth at 10 uM incubated for 48 hrs by sulforhodamine B assay relative to control. In kind it is functional. The settings on record: read-out: Activity.
The subject of a further data set is NCI-H226. The experiment in a line: Antiproliferative activity against human NCI-H226 cells assessed as cell growth at 10 uM incubated for 48 hrs by sulforhodamine B assay relative to control. The format is functional. The settings on record: read-out: Activity.
The next data set concerns CAKI-1. The experiment in a line: Antiproliferative activity against human CAKI-1 cells assessed as cell growth at 10 uM incubated for 48 hrs by sulforhodamine B assay relative to control. In kind it is functional. The settings on record: read-out: Activity.
For the next data set, the system named is UACC-257. The experiment in a line: Antiproliferative activity against human UACC-257 cells assessed as cell growth at 10 uM incubated for 48 hrs by sulforhodamine B assay relative to control. The format is functional. To be noted: read-out: Activity.
The test system of another data set is NCI-H522. Nature of the data set: Antiproliferative activity against human NCI-H522 cells assessed as cell growth at 10 uM incubated for 48 hrs by sulforhodamine B assay relative to control. The format is functional. The settings on record: read-out: Activity.
The test system of a further data set is 786-0. The experiment in a line: Antiproliferative activity against human 786-0 cells assessed as cell growth at 10 uM incubated for 48 hrs by sulforhodamine B assay relative to control. The format is functional. To be noted: read-out: Activity.
The test system of a further data set is HT-29. The experiment in a line: Antiproliferative activity against human HT-29 cells assessed as cell growth at 10 uM incubated for 48 hrs by sulforhodamine B assay relative to control. To be noted: read-out: Activity. In kind it is functional.
A further data set deals with HL-60. The experiment in a line: Antiproliferative activity against human HL-60 cells assessed as cell growth at 10 uM incubated for 48 hrs by sulforhodamine B assay relative to control. In kind it is functional. The settings on record: read-out: Activity.
A further data set concerns UO-31. The experiment in a line: Antiproliferative activity against human UO-31 cells assessed as cell growth at 10 uM incubated for 48 hrs by sulforhodamine B assay relative to control. In kind it is functional. The settings on record: read-out: Activity.
The next data set relates to MOLT-4. The experiment in a line: Antiproliferative activity against human MOLT-4 cells assessed as cell growth at 10 uM incubated for 48 hrs by sulforhodamine B assay relative to control. The settings on record: read-out: Activity. The format is functional.
A further data set relates to CCRF-CEM. Nature of the data set: Antiproliferative activity against human CCRF-CEM cells assessed as cell growth at 10 uM incubated for 48 hrs by sulforhodamine B assay relative to control. The format is functional. The settings on record: read-out: Activity.
Data set [2] deals with MCF7. The experiment in a line: Antiproliferative activity against human MCF7 cells assessed as reduction in cell growth at 10 to 100 uM incubated for 4 hrs by MTS assay. To be noted: dose 10-100 µM. The format is functional, cell-based.
The subject of another data set is UACC-62. The experiment in a line: Antiproliferative activity against human UACC-62 cells assessed as cell growth at 10 uM incubated for 48 hrs by sulforhodamine B assay relative to control. In kind it is functional. To be noted: read-out: Activity.
A further data set concerns MDA-MB-231. The experiment in a line: Antiproliferative activity against human MDA-MB-231 cells assessed as cell growth at 10 uM incubated for 48 hrs by sulforhodamine B assay relative to control. In kind it is functional. To be noted: read-out: Activity.
The next data set has as its system SNB-75. The experiment in a line: Antiproliferative activity against human SNB-75 cells assessed as cell growth at 10 uM incubated for 48 hrs by sulforhodamine B assay relative to control. To be noted: read-out: Activity. In kind it is functional.
Data set [3] relates to MCF7. Nature of the data set: Antiproliferative activity against human MCF7 cells assessed as inhibition of cell growth incubated for 4 hrs by MTS assay. The format is functional.
Data set [4] in a line: Antiproliferative activity against human 16HBE14o- cells assessed as inhibition of cell growth incubated for 4 hrs by MTS assay. In kind it is toxicity, cell-based. To be noted: read-out: IG50. For orientation: Formazan colour is commonly taken as a measure of viable cells.
The next data set has as its system HeLa. The experiment in a line: Antiproliferative activity against human HeLa cells assessed as inhibition of cell growth incubated for 4 hrs by MTS assay. In kind it is functional.
The next data set deals with T47D. The experiment in a line: Antiproliferative activity against human T47D cells assessed as cell growth at 10 uM incubated for 48 hrs by sulforhodamine B assay relative to control. The format is functional. To be noted: read-out: Activity.
Another data set deals with RPMI-8226. The experiment in a line: Antiproliferative activity against human RPMI-8226 cells assessed as cell growth at 10 uM incubated for 48 hrs by sulforhodamine B assay relative to control. The format is functional. The settings on record: read-out: Activity.

Consider `CC(=O)c1c(C)[nH]c2c1c(-c1ccccc1)nc1ccccc12`, for which the growth at 10 µM in the data set on MCF7 [1] turned out to be 73.7%; in the data set with SR, 71.9%; with K562, 92.6%; with PC-3, 78.6%; with NCI-H226, 76.7%; in the data set with CAKI-1 it was 54%. Also, the growth at 10 µM is 75.1% with UACC-257; 72.3% in the data set with NCI-H522; 76.7% in the data set on 786-0; 92.8% in the data set with HT-29; 82.7% in the data set with HL-60; 36.6% in the data set with UO-31. For the same compound, the growth at 10 µM with MOLT-4 came to 106%; with CCRF-CEM, 87.2%; in the data set with UACC-62, 62.4%; in the data set with MDA-MB-231, 84.4%; in the data set with SNB-75 it was 42.3%; with T47D, 82.5%. Also, the growth at 10 µM with RPMI-8226 amounted to 87.9%. The outcome in the data set on MCF7 [2] was Active. The IG50 in the data set with MCF7 [3] and in the data set on HeLa was 10 µM each time. Moreover, the GI50 at 4 h in data set [4] was found to be 10 µM.
